The record followed here is EP0533724B1, “CALCIUM CITRATE MALATE COMPOSITION” (THE PROCTER & GAMBLE COMPANY, priority 1990, dated 1991).

As usually defined, the solubility is the dissolved amount per volume that the medium holds. The low end stands for a poorly soluble substance, the high end for a readily soluble substance.

This series is described as follows: physchem. Particulars: water. The source says:
The exact method for determining this is described hereinafter.

The compound `O=C(O)CC(O)C(=O)O` (stereo not shown) [calcium malate] had a solubility at 0.5 h of 660 mg/mL.
